Experimental data as given in PubChem BioAssay (NCI).
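The concentration for 50% growth inhibition is given as GI50. TGI: total growth inhibition.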

Assays:
Assay in all cases: growth of human tumour cells (NCI), 384-well format
[1] = test system: MDA-MB-435 melanoma
[2] = test system: HT29 colon
[3] = test system: 786-0 renal
[4] = test system: CCRF-CEM leukemia
[5] = test system: BT-549 breast
[6] = test system: SW-620 colon
[7] = test system: UO-31 renal
[8] = test system: UACC-62 melanoma
[9] = test system: NCI-H522 lung
[10] = test system: PC-3 prostate
[11] = test system: MCF7 breast
[12] = test system: EKVX NSCLC
[13] = test system: NCI-H322M lung
[14] = test system: HCC-2998 colon
[15] = test system: MDA-MB-231 breast
[16] = test system: OVCAR-3 ovarian
[17] = test system: NCI-H460 NSCLC
[18] = test system: IGROV1 ovarian
[19] = test system: M14 melanoma
[20] = test system: CAKI-1 renal
[21] = test system: HL-60(TB) leukemia
[22] = test system: A549 NSCLC
[23] = test system: SK-MEL-5 melanoma
[24] = test system: MALME-3M melanoma
[25] = test system: HS 578T breast
[26] = test system: SK-OV-3 ovarian
[27] = test system: RPMI-8226 leukemia
[28] = test system: ACHN renal
[29] = test system: SF-295 CNS
[30] = test system: A498 renal
[31] = test system: SK-MEL-28 melanoma
[32] = test system: LOX IMVI melanoma
[33] = test system: COLO 205 colon
[34] = test system: NCI-H226 lung
[35] = test system: HOP-92 NSCLC
[36] = test system: OVCAR-5 ovarian
[37] = test system: SNB-19 CNS
[38] = test system: HCT-15 colon
[39] = test system: DU-145 prostate
[40] = test system: KM12 colon
[41] = test system: SNB-75 CNS
[42] = test system: OVCAR-8 ovarian
[43] = test system: HOP-62 NSCLC
[44] = test system: RXF 393 renal
[45] = test system: SK-MEL-2 melanoma
[46] = test system: OVCAR-4 ovarian
[47] = test system: SN12C renal

## C=CCN(/C=C1\C(=O)O[C@H](COC)[C@@]2(C)C1=C(O)C(=O)C1=C2[C@H](OC(C)=O)C[C@]2(C)C(=O)CC[C@@H]12)CC=C
[1]
  GI50: 8.15 µM
  TGI: 38.1 µM
[2]
  GI50: 1.08 µM
  TGI: 21.7 µM
[3]
  GI50: 4.45 µM
  TGI: 28.5 µM
[4]
  GI50: 0.723 µM
  TGI: 4.53 µM
[5]
  GI50: 0.553 µM
  TGI: 9.02 µM
[6]
  GI50: 7.45 µM
  TGI: > 100 µM
[7]
  GI50: 2.81 µM
  TGI: > 100 µM
[8]
  GI50: 0.89 µM
  TGI: 8.77 µM
[9]
  GI50: 2.08 µM
  TGI: 14.4 µM
[10]
  GI50: 0.648 µM
  TGI: 18 µM
[11]
  GI50: 0.441 µM
  TGI: 19.4 µM
[12]
  GI50: 0.504 µM
  TGI: 13.6 µM
[13]
  GI50: 1.21 µM
  TGI: 23.3 µM
[14]
  GI50: 0.671 µM
  TGI: 6.09 µM
[15]
  GI50: 3.68 µM
  TGI: > 100 µM
[16]
  GI50: 1.16 µM
  TGI: 12.2 µM
[17]
  GI50: 0.668 µM
  TGI: 90.1 µM
[18]
  GI50: 0.406 µM
  TGI: 5.26 µM
[19]
  GI50: 2.82 µM
  TGI: 30.5 µM
[20]
  GI50: 2.75 µM
  TGI: > 100 µM
[21]
  GI50: 0.156 µM
  TGI: 0.983 µM
[22]
  GI50: 1.11 µM
  TGI: 27.6 µM
[23]
  GI50: 2.96 µM
  TGI: 14.7 µM
[24]
  GI50: 0.677 µM
  TGI: 12.2 µM
[25]
  GI50: 1.15 µM
  TGI: 6.93 µM
[26]
  GI50: 0.68 µM
  TGI: 15.3 µM
[27]
  GI50: 0.657 µM
  TGI: 3.16 µM
[28]
  GI50: 4.71 µM
  TGI: > 100 µM
[29]
  GI50: 2.12 µM
  TGI: 18.7 µM
[30]
  GI50: 0.39 µM
  TGI: 5.3 µM
[31]
  GI50: 1.59 µM
  TGI: 19.7 µM
[32]
  GI50: 5.49 µM
  TGI: 39.1 µM
[33]
  GI50: 0.793 µM
  TGI: 4.64 µM
[34]
  GI50: 2.76 µM
  TGI: 56.7 µM
[35]
  GI50: 2.47 µM
  TGI: 37.6 µM
[36]
  GI50: 3.62 µM
  TGI: 42.9 µM
[37]
  GI50: 13.7 µM
  TGI: > 100 µM
[38]
  GI50: 2.98 µM
  TGI: 97.2 µM
[39]
  GI50: 4.41 µM
  TGI: 59.7 µM
[40]
  GI50: 2.66 µM
  TGI: 96.3 µM
[41]
  GI50: 1.57 µM
  TGI: 10.1 µM
[42]
  GI50: 3.85 µM
  TGI: > 100 µM
[43]
  GI50: 10.3 µM
  TGI: > 100 µM
[44]
  GI50: 0.0828 µM
  TGI: 0.65 µM
[45]
  GI50: 2.36 µM
  TGI: 12.3 µM
[46]
  GI50: 0.787 µM
  TGI: 33.5 µM
[47]
  GI50: 2.08 µM
  TGI: > 100 µM
